# Values joined by “and” are separate entries in the source; they are usually repeats but may differ in a detail not shown here. Equal values may be shown once. Toxic doses and inconclusive results are not listed.
# System: P388 leukemia ip, CD2F1 mice, survival T/C
# Test: NCI In Vivo Anticancer Drug Screen. Data for tumor model P388 Leukemia (intraperitoneal) in CD2F1 (CDF1) mice
# Conditions: endpoint: median survival time, higher = longer survival
# Method in brief: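 Mice carrying the transplanted tumor received test compound or vehicle. Survival was recorded in each group, and the value is the treated-group measurement divided by that of the vehicle-treated control group.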
# [1] = dose: 50.0 mg/kg/injection, schedule: Q01DX009 (ip), vehicle: saline
# [2] = dose: 100.0 mg/kg/injection, schedule: Q04DX003 (ip), vehicle: saline with Tween-80
# [3] = dose: 200.0 mg/kg/injection, schedule: Q04DX003 (ip), vehicle: saline with Tween-80
# [4] = dose: 400.0 mg/kg/injection, schedule: Q04DX003 (ip), vehicle: saline with Tween-80
# [5] = dose: 50.0 mg/kg/injection, schedule: Q01DX005 (ip), vehicle: Klucel (hydroxypropylcellulose) (HPC)
# [6] = dose: 100.0 mg/kg/injection, schedule: Q01DX005 (ip), vehicle: Klucel (hydroxypropylcellulose) (HPC)
# [7] = dose: 200.0 mg/kg/injection, schedule: Q01DX005 (ip), vehicle: Klucel (hydroxypropylcellulose) (HPC)
# [8] = dose: 50.0 mg/kg/injection, schedule: Q01DX009 (ip), vehicle: Klucel (hydroxypropylcellulose) (HPC)
# [9] = dose: 100.0 mg/kg/injection, schedule: Q01DX009 (ip), vehicle: Klucel (hydroxypropylcellulose) (HPC)
# [10] = dose: 60.0 mg/kg/injection, schedule: Q01DX005 (ip), vehicle: saline with Tween-80
# [11] = dose: 120.0 mg/kg/injection, schedule: Q01DX005 (ip), vehicle: saline with Tween-80
# [12] = dose: 240.0 mg/kg/injection, schedule: Q01DX005 (ip), vehicle: saline with Tween-80
# [13] = dose: 100.0 mg/kg/injection, schedule: Q01DX009 (ip), vehicle: saline with Tween-80
# [14] = dose: 50.0 mg/kg/injection, schedule: Q01DX009 (ip), vehicle: saline with Tween-80
# [15] = dose: 200.0 mg/kg/injection, schedule: Q01DX009 (ip), vehicle: saline with Tween-80
# [16] = dose: 100.0 mg/kg/injection, schedule: Q01DX009 (ip), vehicle: saline
smiles,measurement,setting,value
CC(C)NC(C)C(C)c1ccccc1 (centres undefined),T/C,"dose: 25.0 mg/kg/injection, schedule: Q04DX003 (ip), vehicle: saline",99 % of control
same,T/C,"dose: 50.0 mg/kg/injection, schedule: Q01DX001 (ip), vehicle: saline",94 % of control
same,T/C,"dose: 50.0 mg/kg/injection, schedule: Q04DX003 (ip), vehicle: saline",100 % of control
same,T/C,"dose: 100.0 mg/kg/injection, schedule: Q01DX001 (ip), vehicle: saline",96 % of control
same,T/C,"dose: 100.0 mg/kg/injection, schedule: Q04DX003 (ip), vehicle: saline",93 % of control
CCCCCCCCCCCCc1ccc(C[N+](C)(C)CC[N+](C)(C)Cc2ccc(CCCCCCCCCCCC)cc2)cc1,T/C,[1],104 % of control
C/C=C/COCC,T/C,[2],101 % of control
same,T/C,[3],106 % of control
same,T/C,[4],108 % of control
CCNC(=O)OCc1c(COC(=O)NCC)c(-c2ccc(Cl)c(Cl)c2)n2c1CCC2,T/C,"dose: 2.5 mg/kg/injection, schedule: Q01DX009 (ip), vehicle: distilled water + Tween-80",152 % of control
same,T/C,"dose: 6.25 mg/kg/injection, schedule: Q01DX009 (ip), vehicle: saline with Tween-80",154 % of control and 168 % of control
same,T/C,"dose: 10.0 mg/kg/injection, schedule: Q01DX009 (ip), vehicle: distilled water + Tween-80",180 % of control
same,T/C,"dose: 12.5 mg/kg/injection, schedule: Q01DX009 (ip), vehicle: saline with Tween-80",166 % of control and 168 % of control and 170 % of control
same,T/C,"dose: 20.0 mg/kg/injection, schedule: Q01DX009 (ip), vehicle: distilled water + Tween-80",90 % of control
COc1ccc2[nH]c3cc4ccncc4cc3c2c1,T/C,"dose: 25.0 mg/kg/injection, schedule: Q04DX002 (ip), vehicle: saline with Tween-80",122 % of control
same,T/C,"dose: 50.0 mg/kg/injection, schedule: Q04DX002 (ip), vehicle: saline with Tween-80",97 % of control
same,T/C,"dose: 100.0 mg/kg/injection, schedule: Q04DX002 (ip), vehicle: saline with Tween-80",95 % of control
same,T/C,"dose: 200.0 mg/kg/injection, schedule: Q04DX002 (ip), vehicle: saline with Tween-80",97 % of control
O=c1ccc2cc3ccoc3c(OCCCCCCCCCCCCOc3c4occc4cc4ccc(=O)oc34)c2o1,T/C,"dose: 6.25 mg/kg/injection, schedule: Q01DX005 (ip), vehicle: saline with Tween-80",100 % of control
same,T/C,"dose: 12.5 mg/kg/injection, schedule: Q01DX005 (ip), vehicle: saline with Tween-80",100 % of control
same,T/C,"dose: 25.0 mg/kg/injection, schedule: Q01DX005 (ip), vehicle: saline with Tween-80",88 % of control
Brc1cc(-c2ccccc2)ccc1OCC1CO1 (centres undefined),T/C,[5],101 % of control
same,T/C,[6],108 % of control
same,T/C,[7],97 % of control
CCOC(=O)c1ccc2c(c1)nc(-c1ccccn1)n2CCc1ccncc1,T/C,"dose: 25.0 mg/kg/injection, schedule: Q01DX005 (ip), vehicle: Klucel (hydroxypropylcellulose) (HPC)",103 % of control
same,T/C,[5],102 % of control
same,T/C,[6],102 % of control
same,T/C,[7],94 % of control
C(=C\c1cc2cc(C3=NCCN3)ccc2[nH]1)/c1ccc(C2=NCCN2)cc1,T/C,"dose: 6.25 mg/kg/injection, schedule: Q04DX003 (ip), vehicle: saline",107 % of control and 108 % of control
same,T/C,"dose: 12.5 mg/kg/injection, schedule: Q04DX003 (ip), vehicle: saline",117 % of control and 119 % of control
CCN(C(=S)Nc1cccc(C(F)(F)F)c1)c1ccccc1,T/C,[8],101 % of control
same,T/C,[9],108 % of control
CSc1nc(-c2cccs2)cc(C(F)(F)F)n1,T/C,"dose: 50.0 mg/kg/injection, schedule: Q04DX003 (ip), vehicle: gum acacia",105 % of control
same,T/C,"dose: 100.0 mg/kg/injection, schedule: Q04DX003 (ip), vehicle: gum acacia",104 % of control
same,T/C,"dose: 200.0 mg/kg/injection, schedule: Q04DX003 (ip), vehicle: gum acacia",109 % of control
same,T/C,"dose: 400.0 mg/kg/injection, schedule: Q04DX003 (ip), vehicle: gum acacia",96 % of control
CC(C(=O)O)n1c(=O)ssc1=O (centres undefined),T/C,"dose: 15.0 mg/kg/injection, schedule: Q01DX005 (ip), vehicle: Klucel (hydroxypropylcellulose) (HPC)",102 % of control
same,T/C,"dose: 30.0 mg/kg/injection, schedule: Q01DX005 (ip), vehicle: Klucel (hydroxypropylcellulose) (HPC)",93 % of control
same,T/C,"dose: 60.0 mg/kg/injection, schedule: Q01DX005 (ip), vehicle: Klucel (hydroxypropylcellulose) (HPC)",93 % of control
c1ccc2c[s+]ccc2c1,T/C,"dose: 50.0 mg/kg/injection, schedule: Q01DX009 (ip), vehicle: suspension in saline",90 % of control
same,T/C,"dose: 100.0 mg/kg/injection, schedule: Q01DX009 (ip), vehicle: suspension in saline",97 % of control
C=C1C(=O)OC2(C)CCC1CC1OC1(C)CCC=C(C)CCC2O (centres undefined),T/C,"dose: 12.5 mg/kg/injection, schedule: Q01DX009 (ip), vehicle: Klucel (hydroxypropylcellulose) (HPC)",98 % of control
same,T/C,"dose: 25.0 mg/kg/injection, schedule: Q01DX009 (ip), vehicle: Klucel (hydroxypropylcellulose) (HPC)",101 % of control
same,T/C,[8],106 % of control
same,T/C,[9],101 % of control
same,T/C,"dose: 200.0 mg/kg/injection, schedule: Q01DX009 (ip), vehicle: Klucel (hydroxypropylcellulose) (HPC)",106 % of control
Nc1ncnc2c1ncn2C1OC(COC2C(O)C(OC3OC(CO)C(O)C(O)C3N)C(O)C(OS(=O)(=O)O)C2OC(=O)[C@@H](N)CO)C(O)C1O (some centres undefined),T/C,"dose: 0.15 mg/kg/injection, schedule: Q01DX005 (ip), vehicle: Klucel (hydroxypropylcellulose) (HPC)",101 % of control
same,T/C,"dose: 0.31 mg/kg/injection, schedule: Q01DX005 (ip), vehicle: Klucel (hydroxypropylcellulose) (HPC)",98 % of control
same,T/C,"dose: 0.62 mg/kg/injection, schedule: Q01DX005 (ip), vehicle: Klucel (hydroxypropylcellulose) (HPC)",100 % of control
same,T/C,"dose: 1.25 mg/kg/injection, schedule: Q01DX005 (ip), vehicle: Klucel (hydroxypropylcellulose) (HPC)",100 % of control and 94 % of control
CCn1c2ccccc2n2c(=O)c(Cl)c(C)c(C#N)c12,T/C,[10],100 % of control
same,T/C,[11],98 % of control
same,T/C,[12],97 % of control
Nc1nnc(-c2cc([N+](=O)[O-])cc([N+](=O)[O-])c2)o1,T/C,[10],108 % of control
same,T/C,[11],94 % of control
same,T/C,[12],100 % of control
Nc1cc(N)cc(Cc2ccccc2)c1,T/C,[13],100 % of control
same,T/C,[2],100 % of control
same,T/C,[3],109 % of control
same,T/C,[4],95 % of control
CN(C)c1ccc(Sc2ccc3nc(N)nc(N)c3c2)cc1,T/C,[14],95 % of control
same,T/C,[15],174 % of control
same,T/C,"dose: 400.0 mg/kg/injection, schedule: Q01DX009 (ip), vehicle: saline with Tween-80",117 % of control
Nc1c(CC(=O)O)cccc1C(=O)c1ccccc1,T/C,[1],87 % of control
same,T/C,[16],92 % of control
CCCCCCCCCCCCCCCOc1cc(OC)ccc1-c1nnc(SC)s1,T/C,[1],100 % of control
same,T/C,[16],91 % of control
same,T/C,"dose: 200.0 mg/kg/injection, schedule: Q01DX009 (ip), vehicle: saline",100 % of control
CCC(c1ccc(O)cc1)C(CC)c1ccc(OC)cc1 (centres undefined),T/C,[2],104 % of control
same,T/C,[3],86 % of control
COc1cccc(CN2CC(C)N(N=Cc3c4c(O)c5c(O)c(C)c6c(c5c3O)C(=O)C(C)(O/C=C/C(OC)C(C)C(OC(C)=O)C(C)C(O)C(C)C(O)C(C)/C=C/C=C(\C)C(=O)N4)O6)C(C)C2)c1 (centres undefined),T/C,[14],96 % of control
same,T/C,[13],95 % of control
same,T/C,[15],99 % of control
COC(=O)C(Cc1c[nH]c2ccccc12)NC(=O)c1ccccc1NC(=O)OCc1ccccc1 (centres undefined),T/C,"dose: 17.5 mg/kg/injection, schedule: Q01DX005 (ip), vehicle: Klucel (hydroxypropylcellulose) (HPC)",103 % of control
same,T/C,"dose: 35.0 mg/kg/injection, schedule: Q01DX005 (ip), vehicle: Klucel (hydroxypropylcellulose) (HPC)",104 % of control
same,T/C,"dose: 70.0 mg/kg/injection, schedule: Q01DX005 (ip), vehicle: Klucel (hydroxypropylcellulose) (HPC)",97 % of control
Cc1ccc(C(=O)C(c2nc3n(c2O)/C(=N/C(=O)Nc2ccc(Cl)cc2)N=N3)c2nc3n(c2O)/C(=N/C(=O)Nc2ccc(Cl)cc2)N=N3)cc1,T/C,"dose: 60.0 mg/kg/injection, schedule: Q01DX005 (ip), vehicle: saline",99 % of control
same,T/C,"dose: 120.0 mg/kg/injection, schedule: Q01DX005 (ip), vehicle: saline",97 % of control
same,T/C,"dose: 240.0 mg/kg/injection, schedule: Q01DX005 (ip), vehicle: saline",87 % of control

# From PubChem BioAssay AID330 (DTP/NCI, 2004)
